Source: PMC8843100, “Development of newly synthesised quinazolinone-based CDK2 inhibitors with potent efficacy against melanoma” (Journal of Enzyme Inhibition and Medicinal Chemistry, 2022)

Legend:
[1] = system: glioblastoma cell line SNB-75; test: Detection of IC50, MTT assay; type: cell-based; conditions: Homo sapiens, read-out: IC50 (µM)±SD, 50% inhibition of cell viability, Glioblastoma SNB-75, 48 h
Description: 2. Detection of IC50 against MDA-MB-435, SNB-75 cell lines and normal cell line WI -38.
Antiproliferative activities of 5c in melanoma cell line MDA-MB-435, glioblastoma cell line SNB-75 and normal cell line WI -38 and that of 8a in melanoma cell line MDA-MB-435 and normal cell line WI-38 were measured spectrophotometrically using in vitro MTT based toxicology assay kit (catalog no. M -5655, M-8910) (Sigma Aldrich), according to the manufacturer’s protocol. The three examined cell lin es were obtained from American Type Culture Collection (ATCC). Briefly, cells were platted (cells density 1.2 – 1.8 × 10,000 cells/well) in a volume of 100 µl complete growth medium + 100 μl of the tested compound per well in a 96-well […]
salt solution without phenol red and serum.

[2] = system: melanoma MDA-MB-435 cells; test: Cell cycle analysis, PI flow cytometry; type: cell-based, human; conditions: MDA-MB-435, after 24 h at IC50 concentration
Description: 10% of the culture medium volume. Cultures were returned to incubator for 2–4 h. After the incubation period, cultures were removed from incubator and the resulting formazan crystals were dissolved by adding an amount of MTT solubilization solution [M-8910] equal to the original culture medium volume. Dissolution is enhanced by gentle mixing in a gyratory shaker. Then the absorbance is measured spectrophotometrically at a wavelength of 450 nm. The absorbance of multiwell plates was measured at 690 nm and subtracted from the 450 nm measurement. IC50 values (concentration of sample causing 50% loss of cell proliferation of the vehicle control) were calculated using non-linear regression curve fitting of the dose response plots on GraphPad Prism 7.0 software. Data presented are the results of at least three independent experiments. The results of these studies are presented as mean IC50 (μM) ± standard deviation (SD).
(§1) Melanoma MDA -MB-435 and glioblastoma SNB-75 cells were treated with the quinazolinone 5c for 24 h (at its IC50 concentration), and then cells were washed twice with ice - cold phosphate buffered saline (PBS). Consequently, the treated cells were collected by centrifugation, fixed in ice -cold 70% (v/v) ethanol, washed with PBS, re -suspended with 100 μg/mL RNase, stained with 40 μg/mL propidium iodide (PI), and analyzed by flow cytometry using FACS Calibur (Becton Dickinson, BD, Franklin Lakes, NJ, USA). The cell cycle distributions were calculated using Cell Quest software 5.1 (Becton Dickinson). […]

[3] = system: glioblastoma SNB-75 cells; test: Cell cycle analysis, PI flow cytometry; type: cell-based, human; conditions: SNB-75, after 24 h at IC50 concentration
Description: as §1

[4] = system: melanoma MDA-MB-435 cells; test: Apoptosis determination, Annexin V-FITC/PI; type: cell-based, human; conditions: MDA-MB-435, 24 h at IC50 concentration
Description: (§2) The apoptotic activity of quinazolinone 5c in melanoma MDA-MB-435 and glioblastoma SNB-75 cell lines was further studied using Annexin V-FITC assay. […]
(§3) 4. Apoptosis determination
(§4) Annexin V fluorescein isothiocyanate (FITC)/PI apoptosis detection kit (BD Biosciences) was used according to the manufacturer’s instructions to measure the apoptotic activity of compound 5c. Melanoma MDA -MB-435 and glioblastoma SNB -75 cells were cultured to a monolayer then treated with the quinazolinone 5c at its IC50 concentration. The cells then were collected by trypsinisation and 0.5×10^6 cells were washed twice with PBS and stained with 5 µL Annexin V-FITC and 5 µL PI in 1Xbinding buffe r for 15 min. at room temperature in the dark.
(§5) Analyses were performed using FACS Calibur flow cytometer (BD Biosciences, San Jose, CA).

[5] = system: glioblastoma SNB-75 cells; test: Apoptosis determination, Annexin V-FITC/PI; type: cell-based, human; conditions: SNB-75, 24 h at IC50 concentration
Description: as §2, §3, §4, §5

`O=c1c2ccccc2nc(COc2ccccc2)n1NS(=O)(=O)c1ccc(Cl)cc1` [Compound 5c, 4-chloro-N-(4-oxo-2-(phenoxymethyl)quinazolin-3(4H)-yl)benzenesulfonamide] was tested, and the IC50 [1] was 8.62 ± 0.13 µM, the “%G0-G1” value [2] was 55.29% and the “%G2/M” value [2] was 3.74%. For the same compound, the “%Pre-G1” value [2] was 28.65%, the “%S” value [2] was 40.97% and the “Comment (cell cycle)” value [2] was “Pre G1 apoptosis and cell growth arrest at S”. The “%G0-G1” value [3] was 39.53%, the “%G2/M” value [3] was 31.78% and the “%Pre-G1” value [3] was 44.22%. The “%S” value [3] was 28.69%, the “Comment (cell cycle)” value [3] was “Pre G1 apoptosis and cell growth arrest at G2/M” and the “% Necrosis” value [4] was 13.47%. For the same compound, the “%Apoptosis Early” value [4] was 4.53%, the “%Apoptosis Late” value [4] was 10.65% and the “%Apoptosis Total” value [4] was 28.65%. The “% Necrosis” value [5] was 8.61%, the “%Apoptosis Early” value [5] was 2.65% and the “%Apoptosis Late” value [5] was 32.96%. The “%Apoptosis Total” value [5] was 44.22%.
